Results from PubChem BioAssay (NCI).
“And” between values parts separate entries of the source, which are not always exact repeats. Equal entries are not always repeated.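 Dose response: 5 concentrations. Exposure: 48 h. Format: 96-well plates. Endpoint: linear interpolation; highest concentration if not reached. The concentration for 50% growth inhibition is given as GI50. TGI: total growth inhibition.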

Assays:
Experiment in all cases: growth of human tumour cells (NCI), 48 h
HL-60(TB) leukemia = system: HL-60(TB) leukemia
HT29 colon = system: HT29 colon
M14 melanoma = system: M14 melanoma
MOLT-4 leukemia = system: MOLT-4 leukemia
NCI-H522 lung = system: NCI-H522 lung
RPMI-8226 leukemia = system: RPMI-8226 leukemia
SF-268 CNS = system: SF-268 CNS
SK-OV-3 ovarian = system: SK-OV-3 ovarian
TK-10 renal = system: TK-10 renal
UACC-257 melanoma = system: UACC-257 melanoma
SNB-75 CNS = system: SNB-75 CNS

Row | SMILES | TGI (HL-60(TB) leukemia) [µM] | TGI (HT29 colon) [µM] | TGI (M14 melanoma) [µM] | TGI (MOLT-4 leukemia) [µM] | TGI (NCI-H522 lung) | TGI (RPMI-8226 leukemia) [µM] | TGI (SF-268 CNS) [µM] | TGI (SK-OV-3 ovarian) [µM] | TGI (TK-10 renal) [µM] | TGI (UACC-257 melanoma) | TGI (SNB-75 CNS) | GI50 (M14 melanoma) [µM] | GI50 (MOLT-4 leukemia) [µM] | GI50 (NCI-H522 lung) [µM] | GI50 (RPMI-8226 leukemia) [µM] | GI50 (SK-OV-3 ovarian) [µM] | GI50 (SNB-75 CNS) [µM] | GI50 (TK-10 renal) [µM] | GI50 (UACC-257 melanoma) [µM]
1 | Cc1ccc(-c2cc(-c3ccco3)c(C#N)c(=O)n2C2OC(CO)C(O)C(O)C2O)cc1 (stereo unspecified) | > 100 | > 100 | > 100 | > 100 | > 100 µM | > 100 | > 100 | 59.8 | > 100 | > 100 µM |  |  |  |  |  |  |  |  | 
2 | CCOC(=O)C(OP(=O)(OCC)OCC)C(F)(F)F (stereo unspecified) | > 100 | > 100 | > 100 | > 100 | > 100 µM | > 100 | > 100 | > 100 | > 100 | > 100 µM | > 100 µM |  |  |  |  |  |  |  | 
3 | Cn1c(=O)c(Cl)c(N=[N+]=[N-])c2ccccc21 |  | > 100 |  | > 100 | > 100 µM |  | > 100 | > 100 | > 100 | > 100 µM | > 100 µM |  |  |  |  |  |  |  | 
4 | O=[N+]([O-])C(=C/c1cccs1)/C(=C\c1cccs1)[N+](=O)[O-] | 0.139 | 6.13 | 6.88 | 1.3 |  | 1.14 | 10.4 | 8.04 | 7.76 | 3.46 µM | > 95.2 µM |  |  |  |  |  |  |  | 
5 | O=C1c2ccccc2C(=O)N1CC(CN1C(=O)c2ccccc2C1=O)(C(=O)OCc1ccccc1)C(=O)OCc1ccccc1 | > 100 | > 100 | > 100 | > 100 | > 100 µM | > 100 |  | > 100 |  |  | > 100 µM |  |  |  |  |  |  |  | 
6 | C=CCCCCCCCCC(=O)O | 231 | 227 |  | 265 | 209 µM | 352 | 254 | 294 |  | 492 µM | 468 µM |  |  |  |  |  |  |  | 
7 | COc1cccc2c1C(=O)c1c(O)c3c(c(O)c1C2=O)C[C@@](O)(C(=O)CO)CC3OC1CC(NCCCC(OC(C)=O)OC(C)=O)C(O)C(C)O1 (stereo partly specified) | 0.0058 |  |  |  | 0.00346 µM and 0.000412 µM | 0.000403 |  | > 1 | > 1 | 0.00739 µM and 0.00144 µM | 0.00403 µM and 0.000406 µM | < 0.0001 | 0.000123 | < 0.0001 | < 0.0001 | 0.000298 | < 0.0001 | 0.363 | 0.000314
8 | CCN1CCC(O)(c2ccc(O)cc2)C(C(=O)c2ccc(O)cc2)C1 (stereo unspecified) | > 100 | 64.9 | 36.4 | 46 |  | 33.4 | > 100 | > 100 | 31.5 | 32.4 µM | 60.1 µM |  |  |  |  |  |  |  | 
